From patent publication US20230295163A1, “TETRACYCLIC DERIVATIVE, METHOD FOR PREPARING SAME AND USE THEREOF IN MEDICINE” (ZHEJIANG HISUN PHARMACEUTICAL CO., LTD., priority 2020, published 2023)

Legend:
[1] = system: NCI-H358 cell xenograft tumor; test: Pharmacodynamics in NCI-H358 cell BALB/c nude mouse subcutaneous xenograft model; assay type: in vivo, BALB/c nude mice; conditions: 10 mg/kg po qd
Protocol: This test is used to evaluate the anti-tumor effect and safety of the compound 17 of the present disclosure in the animal model of BALB/c nude mouse subcutaneously transplanted with NCI-H358 (human non-small cell lung cancer) cell line after oral intragastric administration for 14 days, once a day.
An appropriate amount of compound 17 was weighed into a 10 mL centrifuge tube, added with an appropriate amount of DMA, shaken by vortex for complete dissolution of the solid matter, then added with an appropriate volume of 30% solutol HS 15, shaken by vortex, mixed well, and added with normal saline to make the ratio of DMA:30% solutol HS 15:saline 10:10:80 (v/v/v), for a preparation at a concentration of 1 mg/mL for administration.
About 3.7×10^6 NCI-H358 cells were subcutaneously inoculated on the right side of the back of female BALB/c nude mice. When the average volume of the tumor reached about 100-150 mm^3, the mice were randomly divided into 2 groups according to the size of the tumor, 6 mice in each group.
After tumor inoculation, a subcutaneous xenograft tumor model was established. Each treatment group and the vehicle control group were orally intragastrically administered for 14 days. The animals were weighed daily, and the tumor volume was measured twice a week.
Formulas for calculating the tumor volume (TV), relative tumor proliferation rate (T/C), relative tumor growth inhibition rate (TGI) and tumor inhibition rate (IR) are as follows: • (1) TV (tumor volume)=½×a×b^2, where a and b represent the length and width of the tumor, respectively; • (2) T/C (relative tumor proliferation rate, %)=TRTV/CRTV×100%, where TRTV is the RTV of the treatment group, and CRTV is the RTV of the control group; • (3) TGI % (tumor growth inhibition rate)=(1−T/C)×100%; where T and C are the relative tumor volumes at a specific time point in the treatment group and the control group, respectively. • (4) IR (%) (tumor weight inhibition rate)=(1−TWt/TWc)×100%, where TWt is the tumor weight in the treatment group, and TW is the tumor weight in the control group.

[2] = target: T1, hERG potassium ion channel (Homo sapiens, UniProt Q12809); test: Inhibition of hERG potassium ion channel (QPatch, CHO hERG cells); assay type: cell-based
T1 construct: host or cells: CHO
T1 sequence (Q12809 whole entry): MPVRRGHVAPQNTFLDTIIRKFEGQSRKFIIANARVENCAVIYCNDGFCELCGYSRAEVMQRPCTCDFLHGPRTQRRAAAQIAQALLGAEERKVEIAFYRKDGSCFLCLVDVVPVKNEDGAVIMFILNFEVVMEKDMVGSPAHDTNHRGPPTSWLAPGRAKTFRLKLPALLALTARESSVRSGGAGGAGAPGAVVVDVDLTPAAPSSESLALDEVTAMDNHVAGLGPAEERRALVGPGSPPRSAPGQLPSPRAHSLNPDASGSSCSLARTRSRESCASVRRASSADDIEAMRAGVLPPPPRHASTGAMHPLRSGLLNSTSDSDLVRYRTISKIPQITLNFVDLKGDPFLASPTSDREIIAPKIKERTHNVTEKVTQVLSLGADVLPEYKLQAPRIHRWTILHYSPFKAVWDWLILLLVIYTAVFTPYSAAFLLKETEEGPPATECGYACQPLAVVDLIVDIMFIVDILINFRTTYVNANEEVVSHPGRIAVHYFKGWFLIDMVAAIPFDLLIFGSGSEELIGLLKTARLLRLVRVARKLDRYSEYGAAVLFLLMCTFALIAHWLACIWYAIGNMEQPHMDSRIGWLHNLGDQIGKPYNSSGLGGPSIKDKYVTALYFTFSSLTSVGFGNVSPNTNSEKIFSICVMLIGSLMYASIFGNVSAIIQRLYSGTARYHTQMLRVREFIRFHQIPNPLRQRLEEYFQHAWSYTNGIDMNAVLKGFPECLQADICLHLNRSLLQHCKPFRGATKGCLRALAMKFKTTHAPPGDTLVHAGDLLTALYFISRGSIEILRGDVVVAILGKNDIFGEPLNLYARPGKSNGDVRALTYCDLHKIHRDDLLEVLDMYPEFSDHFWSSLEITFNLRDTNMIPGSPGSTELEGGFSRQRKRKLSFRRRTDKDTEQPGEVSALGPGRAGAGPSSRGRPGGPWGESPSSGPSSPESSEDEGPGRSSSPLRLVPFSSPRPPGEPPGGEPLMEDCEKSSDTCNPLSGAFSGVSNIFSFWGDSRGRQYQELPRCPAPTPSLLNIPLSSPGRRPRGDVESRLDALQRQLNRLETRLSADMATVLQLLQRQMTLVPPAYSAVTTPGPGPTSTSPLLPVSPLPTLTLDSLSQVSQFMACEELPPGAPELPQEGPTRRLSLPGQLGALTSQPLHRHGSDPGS
Protocol: 1.1 The cells used in this experiment were CHO cell line (provided by Sophion Bioscience, Denmark) transfected with hERG cDNA and stably expressing hERG channels, with a cell generation of 17. The cells were cultured in a medium containing the following components (all obtained from Invitrogen): Ham's F12 medium, 10% (v/v) inactivated fetal bovine serum, 100 μg/mL hygromycin B, and 100 μg/mL geneticin.
1.2 CHO hERG cells were cultured in a petri dish containing the above culture medium in an incubator containing 5% CO2 at 37° C. 24 to 48 h before the electrophysiological experiment, CHO hERG cells were transferred to a round glass slide placed in a petri dish, and cultured in the same medium and conditions as above. The density of CHO hERG cells on each round glass slide met the requirement that the majority of cells were independent and individual.
A fully automated QPatch system (Sophion, Denmark) was used for whole-cell current recordings. Cells were clamped at a voltage of −80 mV. […]
After reaching a membrane-permeable whole-cell configuration state during the initial phase, the cells were recorded for at least 120 s to reach stabilization. […]
The test data were analyzed by analysis software Qpatch provided by Sophion, Excel, Graphpad Prism, and the like.

NCI-H358 cells = test: Inhibition of NCI-H358 cell proliferation (CellTiter-Glo); assay type: cell-based, human; conditions: Homo sapiens, NCI-H358, 120 h, 120 h of culture; read-out: IC50 inhibiting NCI-H358 cell proliferation
Protocol: The following method was used to determine the effect of the compounds of the present disclosure on the proliferation of NCI-H358 cells. NCI-H358 cells (containing KRAS G12C mutation) were purchased from the Cell Resource Center, Shanghai Institutes for Biology Sciences, Chinese Academy of Sciences, and cultured in RPMI 1640 medium containing 10% fetal bovine serum, 100 U penicillin, 100 μg/mL streptomycin and 1 mM sodium pyruvate. Cell viability was determined by CellTiter-Glo® Luminescent Cell Viability Assay Kit (Promega, Cat. No. G7573).
The experiment was conducted according to the steps in the kit instruction, which is briefly described as follows: The test compound was first prepared with DMSO into a 10 mM stock solution, which was then diluted with medium into a test sample with a final concentration of the compound ranging from 1000 nM to 0.015 nM Cells in the logarithmic growth phase were inoculated into a 96-well cell culture plate at a density of 800 cells per well, cultured overnight at 37° C. in a 5% CO2 incubator, and then added with the test compound for 120 h of culture. After the culture was completed, 50 μL of CellTiter-Glo detection solution was added to each well, shaken for 5 min and left to stand for 10 min. Subsequently, the luminescence value of the sample in each well was read by a microplate in a luminescence mode. The percentage of inhibition rate of the compounds at each concentration was calculated by comparing with the value of the control group (0.3% DMSO). Then a nonlinear regression analysis on the log concentration-inhibition rate of the compounds was performed by the software GraphPad Prism 5 to obtain the IC50 value of the compound inhibiting NCI-H358 cell proliferation. Table 2 IC50 data of compounds of the present disclosure inhibiting NCI-H358 cell proliferation Compound number IC50(nM)

SMILES: C=CC(=O)N1C[C@@H]2C(=O)N(C)c3c(c4cc(Cl)c(-c5c(O)cccc5F)nc4n(-c4c(SC)ccnc4C(C)C)c3=O)N2C[C@H]1C (single isomer, unassigned) [Compound 17]
- IR (tumor weight inhibition rate) ([1]; 14 days): 90.8%
- Tumor weight (x ± S) ([1]; 14 days): 0.0157 ± 0.0033 g
- T/C (%) ([1]; Day 15 after administration): 15.6%
- TGI (%) ([1]; Day 15 after administration): 84.4%
- Tumor volume (x ± S) ([1]; Day 15 after administration, mean ± standard error): 52 ± 15 mm^3
- Body weight change ([1]; within 14 days): without significant body weight change
- Growth inhibitory effect on the tumor model (in words) ([1]; within 14 days): obvious growth inhibitory effect
- Inhibitory effect on heart hERG potassium ion channel (in words) [2]: no obvious inhibitory effect
- IC50 ([2]; highest test concentration 30 μM): > 30 µM
- IC50 (NCI-H358 cells): 0.0211 µM
